Counter-ions that a name gives are not always drawn.
Columns and labels:
brain tissue of the mice = assay: Content of EAA (Glu, Asp, GABA, Gly) in brain tissue after decollation; type: in vivo, Kunming mice; conditions: intragastric 7 days
Protocol: (§1) Randomly group 70 Kunming male mice into 7 groups: control group, group of L-carnitine 450 mg/kg, group of trimetazidine 9 mg/kg, group of vinpocetine 1.5 mg/kg, group of L-carnitine 450+trimetazidine 9 mg/kg, group of trimetazidine 9+vinpocetine 1.5 mg/kg, and group of L-carnitine 450+trimetazidine 9+vinpocetine 1.5 mg/kg, with each group of 10 mice. Administer […] preparation intragastrically to the mice of experimental groups, and the same volume of normal saline to control group once a day for consecutive 7 days. One hour after the last administration, behead the mice immediately from behind the ear, and stopwatch the breathing time of mice after their decollation.
Biochemical indicator test of brain tissue: After death of the mice, immediately get their brain tissues in ice bath, wash them in ice saline to remove the residual blood, and then add ice […] according to the proportion of 1:9. Under the condition of ice bath, high-speed homogenate machine (10 s per times, at intervals of 15 s for 4 times) is used to make the brain tissue into 10% cerebral homogenate. Centrifuge the homogenate under the temperature of 4° C. with the speed of 2000 r/min for 5 min to separate the supernatant, and detect the content of glutamic acid (Glu), aspartic acid (Asp), aminobutyric acid (GABA), and glycine (Gly) in the brain tissue of the mice by amino acid analyzer. After brain injury, the content of Glu, Asp, GABA and Gly, etc. (representatives of the excitatory amino acid (EAA)) in the brain is higher. In particular, one of the important mechanisms that could cause the death of secondary brain injury neurons is the excessive release of Glu. An important reason that leads to delayed neuronal death is the cascade of damage due to calcium overload in the neurons, which is caused by the activation of receptor N-methyl-D-aspartate (NMDA) by Glu. The degree to which the mitochondrial function is damaged determines the death method of neurons [Clemens J A, Stephenson D T, Smalsting E B. Global ischemia activate nuclear. Storke, 1997, 28:1073-1076].

[1] = tested on: mice under the condition of normobaric hypoxia; assay: Hypoxia tolerance and survival time of mice under normobaric hypoxia (sealed bottle with soda lime); type: in vivo; conditions: intragastric once a day 7 days
Protocol: (§2) Choose 100 male mice with weight of 20±2 g, randomly group them into 10 by weight with each group of 10 mice, and then inject 10 ml/kg preparation to experimental groups, and the same volume of normal saline to control group by tail intravenous injection once a day for consecutive 7 days. One hour after the last injection, put each mouse into a 160 ml wild-mouth bottle, into which 5 g soda lime has been pre-added, and then seal tightly the caps with petroleum jelly. Record survival time of the mice with death as the indicator.
(§3) Choose 80 male mice with weight of 20±2 g, randomly group them into 8 by weight with each group of 10 mice, and then administer 20 ml/kg preparation intragastrically to the mice of experimental groups, and the same volume of normal saline to control group once a day for consecutive 7 days. One hour after the last administration, put each mouse into a 160 ml wild-mouth bottle, into which 5 g soda lime has been pre-added, and then seal tightly the caps with petroleum jelly. Record survival time of the mice with death as the indicator.
as §3, with “40” for “80”, “4” for “8”
as §2, with “Choose 370” for “Choose 100”, “into 37” for “into 10”, “group” for “group by tail intravenous injection”

[2] = tested on: mice model of acute brain hypoxia; assay: Mice model of acute brain hypoxia: breathing time after decollation; type: in vivo, Kunming mice; conditions: intragastric once a day 7 days
Protocol: as §1

With `C[N+](C)(C)C[C@H](O)CC(=O)[O-]` [L-carnitine] the “Asp content in brain tissue” value (brain tissue of the mice; L-carnitine 450 mg/kg) was 15.68 ± 4.23 µmol/L, the “GABA content in brain tissue” value (brain tissue of the mice; L-carnitine 450 mg/kg) was 3.71 ± 1.11 µmol/L and the “Glu content in brain tissue” value (brain tissue of the mice; L-carnitine 450 mg/kg) was 18.45 ± 1.22 µmol/L. For the same compound, the “Gly content in brain tissue” value (brain tissue of the mice; L-carnitine 450 mg/kg) was 3.54 ± 1.29 µmol/L, the “Prolonged Survival Time” value ([1]; L-carnitine 450 mg/kg alone) was 31.6% and the “Survival Time” value ([1]; L-carnitine 450 mg/kg alone) was 29.6 ± 3.6 min. For the same compound, the “Breathing Time after Decollation” value ([2]; L-carnitine 450 mg/kg) was 18.6 ± 1.2 S.

`COc1ccc(CN2CCNCC2)c(OC)c1OC` [Trimetazidine, trimetazidine hydrochloride] was tested, and the “Asp content in brain tissue” value (brain tissue of the mice; trimetazidine 9 mg/kg) was 15.21 ± 2.06 µmol/L, the “GABA content in brain tissue” value (brain tissue of the mice; trimetazidine 9 mg/kg) was 3.44 ± 1.12 µmol/L and the “Glu content in brain tissue” value (brain tissue of the mice; trimetazidine 9 mg/kg) was 17.02 ± 0.99 µmol/L. The “Gly content in brain tissue” value (brain tissue of the mice; trimetazidine 9 mg/kg) was 3.49 ± 1.12 µmol/L and the “Breathing Time after Decollation” value ([2]; trimetazidine 9 mg/kg) was 18.5 ± 2.1 S.

For `CCOC(=O)C1=C[C@]2(CC)CCCN3CCc4c(n1c1ccccc41)[C@@H]32` [Vinpocetine, vinpocetine], the “Asp content in brain tissue” value (brain tissue of the mice; vinpocetine 1.5 mg/kg) was 15.46 ± 2.21 µmol/L, the “GABA content in brain tissue” value (brain tissue of the mice; vinpocetine 1.5 mg/kg) was 3.15 ± 1.05 µmol/L and the “Glu content in brain tissue” value (brain tissue of the mice; vinpocetine 1.5 mg/kg) was 19.12 ± 2.01 µmol/L. For the same compound, the “Gly content in brain tissue” value (brain tissue of the mice; vinpocetine 1.5 mg/kg) was 3.82 ± 1.84 µmol/L, the “Prolonged Survival Time” value ([1]; vinpocetine 1.5 mg/kg alone) was 13.6% and the “Survival Time” value ([1]; vinpocetine 1.5 mg/kg alone) was 25.1 ± 4.8 min. For the same compound, the “Breathing Time after Decollation” value ([2]; vinpocetine 1.5 mg/kg) was 19.5 ± 1.5 S.
